Results taken from US7608622B2, “Imidazo[4,5-b]pyrazinone inhibitors of protein kinases” (Janssen Pharmaceutica NV, priority 2004, dated 2009).

What follows are compounds tested against T1, Aurora-2 (Homo sapiens, UniProt O14965) (assay: Aurora-2 Enzymatic Assay (ELISA-based)). Conditions: phosphorylated Aurora-2 (residues 125-391), Histone H3 Ser-10 phosphorylation, averages of three independent measurements; read-out: Aurora-2 IC50 Enzyme.
T1 construct: autophosphorylation of Aurora-2 (residues 125-391)
T1 sequence (O14965 125-391): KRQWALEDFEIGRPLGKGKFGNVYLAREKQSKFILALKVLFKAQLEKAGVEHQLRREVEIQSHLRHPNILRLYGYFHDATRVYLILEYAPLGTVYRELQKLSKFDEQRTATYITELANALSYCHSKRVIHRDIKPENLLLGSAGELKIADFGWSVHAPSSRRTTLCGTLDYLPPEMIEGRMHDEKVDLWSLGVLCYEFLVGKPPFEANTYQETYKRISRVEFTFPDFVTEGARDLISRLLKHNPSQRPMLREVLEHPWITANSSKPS
Format: biochemical
Procedure: In vitro assays were run to measure potency of Aurora-2 kinase inhibition by selected compounds of Formula I.
Aurora-2 Enzymatic Assay. An ELISA-based enzymatic assay was used to determine the compound potency for Aurora-2. In this assay, phosphorylated Aurora-2 (Pi-Aurora-2) catalyzes the ATP-dependent phosphorylation of Ser-10 of Histone H3. Pi-Aurora-2 was produced by autophosphorylation of Aurora-2 (residues 125-391) by 1 mM ATP in the presence of 10 mM MgCl2. The assay buffer used was 100 mM HEPES, pH 7.5, 1 mM DTT, 0.01% (v/v) Tween-20. Compounds were diluted in assay buffer containing 4% DMSO just prior to the assay. • Procedure. High-binding 96-well ELISA plates (Costar 9018) were coated overnight at 4° C. with 10 μg/ml human Histone H3 (Upstate) in PBS (100 μl/well). The following day, the plates were emptied and blocked with 1% BSA in PBS (150 μl/well) for 1 h at 37° C. At the end of the incubation, plates were washed 3 times with 0.01% Tween-20 in PBS (300 μl/well). 50 μl of compound were dispensed to each well followed by addition of 20 μl 10 mM MgCl2 and 20 μl 50 μM ATP (Sigma). The reaction was initiated by addition of 10 μl 30 nM Pi-Aurora-2. […] The reaction was quenched with 9 μl 50 mM EDTA and the plates were washed 5 times with 0.01% Tween-20 in PBS (300 μl/well). The phospho-histone H3 (Ser10) 6G3 monoclonal antibody (Cell Signaling) was then diluted 2,000-fold with 1% BSA in PBS, and was added to the plates (100 μl/well). Following 1 h incubation at 37° C., the plates were washed as described above. The HRP-conjugated secondary antibody (goat anti-mouse Ig(H+ L)-HRP human absorbed, Southern Biotechnology Associates, Inc.) was diluted 20,000-fold with 1% BSA in PBS and was added to the plates (100 μl/well). The plates were incubated for 1 h at 37° C. and then washed 5 times with 0.01% Tween-20 in PBS (300 μl/well). 100 μl/well TMB, SureBlue Reserve (KPL) were added. After ca. 5-6 min, each well received 100 μl 1 M HCl and the OD450 was measured with a SpectraMax Plus microplate reader (Molecular Devices). Under these conditions, absorbance values for positive and negative controls were ca. 0.1 and 1.7, respectively, and were used to define the 100% and 0% inhibition of the Aurora-2 reaction. The IC50 values reported (Table 1) are the averages of three independent measurements.

IC50 [nM]	Structure (SMILES)
> 1000	Cc1noc(C)c1-c1cnc2[nH]c(=O)n([C@@H](C)c3ccccc3)c2n1 [Compound 5, 6-(3,5-Dimethylisoxazol-4-yl)-1-((S)-(−)-1-phenylethyl)-1,3-dihydro-imidazo[4,5-b]pyrazin-2-one]
> 1000	COc1cc(-c2cnc3[nH]c(=O)n([C@H](C)c4ccccc4)c3n2)cc(OC)c1OC [Compound 2, 1-((R)-(+)-1-Phenylethyl)-6-(3,4,5-trimethoxyphenyl)-1,3-dihydro-imidazo[4,5-b]pyrazin-2-one]
> 1000	CC(=O)c1cccc(-c2cnc3[nH]c(=O)n(Cc4ccccc4)c3n2)c1 [Compound 13, 6-(3-Acetylphenyl)-1-benzyl-1,3-dihydroimidazo[4,5-b]pyrazin-2-one]
< 500	COc1cc(-c2cnc3[nH]c(=O)n(Cc4ccccc4Cl)c3n2)cc(OC)c1OC [Compound 37, 1-(2-Chlorobenzyl)-6-(3,4,5-trimethoxyphenyl)-1,3-dihydro-imidazo[4,5-b]pyrazin-2-one]
< 500	COc1cc(-c2cnc3[nH]c(=O)n([C@@H](C)c4ccccc4)c3n2)cc(OC)c1OC [Compound 1, 1-((S)-(−)-1-Phenylethyl)-6-(3,4,5-trimethoxyphenyl)-1,3-dihydroimidazo[4,5-b]pyrazin-2-one]
500 to 1000	O=C(O)c1cccc(-c2cnc3[nH]c(=O)n(Cc4ccccc4)c3n2)c1 [Compound 18, 3-(3-Benzyl-2-oxo-2,3-dihydro-1H-imidazo[4,5-b]pyrazin-5-yl)benzoic acid]
> 1000	COc1cc(OC)cc(-c2cnc3[nH]c(=O)n(Cc4ccccc4)c3n2)c1 [Compound 21, 1-Benzyl-6-(3,5-dimethoxyphenyl)-1,3-dihydro-imidazo[4,5-b]pyrazin-2-one]
